For one data set, the system named is PC-07-006 model. Nature of the data set: Anti-human IgG secondary antibody staining of TRODELVY bound to tumor cells in vivo (Example 5). Also on record: species or system BALB/c nude mice. Conditions: tissue samples from Example 4. The source says:
The experimental method was the same as in Example 3. The experimental tissue samples were from Example 4. The anti-human IgG secondary antibody was able to recognize the binding of TRODELVY to tumor cells in vivo. […] Example 6: In vivo pharmacological study of the tumor infiltration level of test article, fluorescein Cy5.5-labeled Hanquyou( ? ) antibody (H-Cy5.5), in a subcutaneous xenograft tumor model of human gastric cancer NCI-N87 cells in Balb/c-nude mice after administration of IN10018

Data set [1] deals with human pancreatic cancer PC-07-0067 model. Description: Anti-tumor efficacy in pancreatic cancer PC-07-0067 subcutaneous xenograft (PDX) model (Example 4). Format: in vivo, BALB/c nude mice. Conditions: TRODELVY 3 mg/kg IV BIW. The text has this:
Establishment of PDX model: The human pancreatic cancer PC-07-0067 model was initially established from a surgically resected clinical sample, which was designated as P0 after being inoculated into nude mice. Inoculation of tumor tissue from P0 into the next generation of mice is referred to as P1, and so on for subsequent serial passages in nude mice. FP3 tumors were resuscitated from P2 generation tissue, and the next generation from FP3 was designated as FP4, and so on.
Tumor Inoculation: A 20-30 mm^3 PC-07-0067 FP5 tumor tissue piece was subcutaneously inoculated on the right flank of each mouse for tumor growth. The mice were randomized for dosing when the mean tumor volume reached approximately 100-150 mm^3.
Experimental indicator: The experimental indicator is to examine whether tumor growth is inhibited, delayed or cured. Tumor diameter is measured with a vernier caliper twice a week. The formula for calculating tumor volume is: V = 0.5a × b^2, a and b represent the long diameter and short diameter of the tumor, respectively.
The anti-tumor efficacy of a compound is evaluated using the TGI(%) or tumor proliferation rate (T/C)(%). TGI(%) reflects the rate of tumor growth inhibition.
Tumor proliferation rate T/C (%): The calculation formula is as follows: T/C(%) = Ti/Vi × 100 %, wherein Vi is the mean tumor volume of the solvent control group at a certain measurement, and Ti is the mean tumor volume of the dosing group at the same measurement.

For orientation: T/C means the result in the treated group divided by that in the control group, in per cent. In general, TGI refers to how far tumour growth fell short of that in controls. Low values mean a weaker effect on the tumour, high ones a stronger effect on the tumour. With TRODELVY, the antibody-tumor cell binding entry in the data set on PC-07-006 model is on record as “significant antibody-tumor cell binding”. In data set [1] (after 14 days of dosing, T/C = Ti/Vi, IN10018 12.5 mg/kg PO QD), this sequence had a T/C of 27.95%. The same sequence displayed a TGI in data set [1] (after 14 days of dosing, IN10018 12.5 mg/kg PO QD) of 78.91%. In addition, in data set [1] (day 14, IN10018 12.5 mg/kg PO QD (tartrate salt weighed)), the mean tumor volumes came to 423 mm^3.

The record behind these values is patent EP4691487A1, “METHOD FOR INCREASING CONCENTRATION OF MACROMOLECULAR DRUG IN TUMOR TISSUE” (priority 2023, dated 2024).
